Measured values taken from ChEMBL document CHEMBL1201862, “PubChem BioAssay data set” (2004).
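Five concentrations, 48 hours, 96-well plates. GI50 is the concentration that inhibits growth by half.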 Activity calls are given as the source filed them. Cut-off read from the data, not from the text of the source: active = GI50 up to about 1.1 µM and inactive = higher.

Assays:
Test in all cases: growth of human tumour cells (NCI), 48 h
[1] = system: A498
[2] = system: CAKI-1
[3] = system: COLO 205
[4] = system: DU-145
[5] = system: EKVX
[6] = system: IGROV-1
[7] = system: KM12
[8] = system: MCF7
[9] = system: OVCAR-3
[10] = system: OVCAR-4
[11] = system: OVCAR-8
[12] = system: PC-3
[13] = system: RPMI-8226
[14] = system: RXF 393
[15] = system: SF-268
[16] = system: SF-539
[17] = system: SK-OV-3
[18] = system: SN12C
[19] = system: SW-620
[20] = system: MOLT-4

Measured: GI50

CC(C)N(Cc1ccccc1)S(=O)(=O)c1nc(C(C)(C)C)n[nH]1
inactive: [1] > 100 µM | [2] > 100 µM | [3] > 100 µM | [4] > 100 µM | [5] > 100 µM | [6] > 100 µM | [7] > 100 µM | [8] > 100 µM | [9] > 100 µM | [10] > 100 µM | [11] > 100 µM | [12] > 100 µM | [13] > 100 µM | [14] > 100 µM | [15] > 100 µM | [16] > 100 µM | [17] > 100 µM | [18] > 100 µM | [19] > 100 µM

COc1ccc(-n2c(N)c(C#N)c(C#N)c2-c2ccccc2)cc1
inactive: [1] > 100 µM | [2] > 100 µM | [3] > 100 µM | [4] > 100 µM | [5] > 100 µM | [6] 24.2 µM | [7] > 100 µM | [8] > 100 µM | [20] > 100 µM | [9] > 100 µM | [10] 15.1 µM | [11] 84.7 µM | [12] 19.8 µM | [13] > 100 µM | [14] 23.8 µM | [15] 31.1 µM | [16] 11 µM | [17] > 100 µM | [18] > 100 µM | [19] > 100 µM

N#Cc1ccc(C2NN=CC23C(=O)c2ccccc2OC3c2ccccc2)cc1 (stereo unspecified)
inactive: [1] 26.9 µM | [2] 34 µM | [3] 18.8 µM | [4] 47.1 µM | [5] 21.1 µM | [6] 50.6 µM | [7] 36.4 µM | [8] 34.2 µM | [20] 22.3 µM | [9] 30.4 µM | [10] 33.8 µM | [11] 42.4 µM | [12] 29.7 µM | [13] 20.8 µM | [14] 15 µM | [15] 52.4 µM | [16] 42.2 µM | [17] 31.8 µM | [18] 41.1 µM | [19] 45.2 µM

Cc1ccc(S(=O)(=O)NNC(C[N+](=O)[O-])c2ccccc2)cc1 (stereo unspecified)
inactive: [1] 16.1 µM | [2] 22.5 µM | [3] 14.4 µM | [4] 44.5 µM | [5] 75.5 µM | [6] 7.23 µM | [7] 14.1 µM | [8] 3.88 µM | [20] 3.56 µM | [9] 21.7 µM | [10] 15.8 µM | [11] 22 µM | [12] 57.9 µM | [13] 3.56 µM | [14] 2.94 µM | [15] 15.3 µM | [16] 27.1 µM | [17] 21.9 µM | [18] 32 µM | [19] 11.5 µM

CCCCN(C)C(=O)C1=C(C)NC(C)=C(C(=O)N(C)CCCC)C1
inactive: [1] > 100 µM | [2] > 100 µM | [3] > 100 µM | [4] > 100 µM | [5] > 100 µM | [6] > 100 µM | [7] > 100 µM | [8] > 100 µM | [20] > 100 µM | [9] > 100 µM | [10] > 100 µM | [11] > 100 µM | [12] > 100 µM | [13] > 100 µM | [14] > 100 µM | [15] > 100 µM | [16] > 100 µM | [17] > 100 µM | [18] > 100 µM | [19] > 100 µM

CC(C)CC1C(=O)OC(C)(C)OC1=O
inactive: [1] > 100 µM | [2] > 100 µM | [3] > 100 µM | [4] > 100 µM | [5] > 100 µM | [6] > 100 µM | [7] > 100 µM | [8] > 100 µM | [20] > 100 µM | [9] > 100 µM | [10] > 100 µM | [11] > 100 µM | [12] > 100 µM | [13] > 100 µM | [14] > 100 µM | [15] > 100 µM | [16] > 100 µM | [17] > 100 µM | [18] > 100 µM | [19] > 100 µM

Nc1c(-c2nc3ccccc3o2)sc(=S)n1-c1ccc(Cl)cc1
inactive: [1] 37.7 µM | [2] 12.6 µM | [3] 17.1 µM | [4] 12 µM | [5] 12.6 µM | [6] 17.7 µM | [7] 22.4 µM | [8] 5.07 µM | [20] > 100 µM | [9] 15.9 µM | [10] 11 µM | [11] 12.1 µM | [12] 21.7 µM | [13] 82.6 µM | [14] 23 µM | [15] 12.9 µM | [16] 11.6 µM | [17] 15.5 µM | [18] 51.8 µM

CNNC1=NS(=O)(=O)c2cc(C(=O)OC)c(Cl)cc2S1
inactive: [1] > 10 µM | [2] > 10 µM | [3] > 10 µM | [4] > 10 µM | [5] > 10 µM | [6] > 10 µM | [7] > 10 µM | [8] > 10 µM | [20] > 10 µM | [9] > 10 µM | [10] > 10 µM | [11] > 10 µM | [12] > 10 µM | [13] > 10 µM | [14] > 10 µM | [15] > 10 µM | [16] > 10 µM | [17] > 10 µM | [18] > 10 µM | [19] > 10 µM

CC(=O)Oc1ccc(-c2nnc(-c3ccc(OC(C)=O)cc3)nn2)cc1
inactive: [1] > 100 µM | [2] > 100 µM | [3] > 100 µM | [4] > 100 µM | [5] 70.5 µM | [6] > 100 µM | [7] > 100 µM | [8] > 100 µM | [20] > 100 µM | [9] > 100 µM | [10] > 100 µM | [11] > 100 µM | [12] > 100 µM | [13] > 100 µM | [14] > 100 µM | [15] > 100 µM | [16] > 100 µM | [17] > 100 µM | [18] > 100 µM | [19] > 100 µM

CC(C)(Oc1ccc(C2C[C@H]2Cl)cc1)C(=O)O (stereo partly specified)
inactive: [1] > 100 µM | [2] > 100 µM | [3] > 100 µM | [4] > 100 µM | [5] > 100 µM | [6] > 100 µM | [7] > 100 µM | [8] > 100 µM | [20] > 100 µM | [9] > 100 µM | [10] > 100 µM | [12] > 100 µM | [13] > 100 µM | [14] > 100 µM | [16] > 100 µM | [17] > 100 µM | [18] > 100 µM | [19] > 100 µM
